Data set [1] concerns the target T1, TPH1 (Mus musculus, UniProt P17532).
T1 construct: from tissue; host or cells: mice (in vivo)
T1 sequence (P17532 1-447): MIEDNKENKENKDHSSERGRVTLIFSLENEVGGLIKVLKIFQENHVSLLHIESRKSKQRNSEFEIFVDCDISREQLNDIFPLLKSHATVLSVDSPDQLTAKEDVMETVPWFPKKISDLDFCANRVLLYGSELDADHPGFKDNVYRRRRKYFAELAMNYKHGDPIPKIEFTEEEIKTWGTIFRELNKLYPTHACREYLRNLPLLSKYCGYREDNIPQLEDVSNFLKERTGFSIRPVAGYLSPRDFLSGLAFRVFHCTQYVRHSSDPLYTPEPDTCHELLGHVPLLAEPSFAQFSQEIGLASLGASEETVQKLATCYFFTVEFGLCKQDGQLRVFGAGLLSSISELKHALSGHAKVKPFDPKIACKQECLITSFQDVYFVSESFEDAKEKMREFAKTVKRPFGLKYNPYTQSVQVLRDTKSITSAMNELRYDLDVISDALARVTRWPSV
To be noted: amorphous form; cited from earlier work.

Data set [2] in a line: stability and shelf life of crystalline polymorphs. The data set is classed as physicochemical. As to conditions: particularly at temperatures of less than 95° C.

With `CCOC(=O)[C@@H]1CC2(CCN(c3cc(O[C@H](c4ccc(Cl)cc4-c4ccccc4)C(F)(F)F)nc(N)n3)CC2)CN1` [Compound A, (S)-ethyl 8-(2-amino-6-((R)-1-(5-chloro-[1,1′-biphenyl]-2-yl)-2,2,2-trifluoroethoxy)pyrimidin-4-yl)-2,8-diazaspiro[4.5]decane-3-carboxylate], the “efficacy in inhibiting TPH1 in mice” value in data set [1] was “demonstrated”.
As to `CCOC(=O)[C@@H]1CC2(CCN(c3cc(O[C@H](c4ccc(Cl)cc4-c4ccccc4)C(F)(F)F)nc(N)n3)CC2)CN1` [crystalline Form 3 polymorph, (S)-ethyl 8-(2-amino-6-((R)-1-(5-chloro-[1,1′-biphenyl]-2-yl)-2,2,2-trifluoroethoxy)pyrimidin-4-yl)-2,8-diazaspiro[4.5]decane-3-carboxylate], the “stability and shelf life compared to the crystalline Form 1 polymorph” value in data set [2] is “substantially greater stability and shelf life”.

(Values after patent US20220096475A1, “METHOD FOR TREATING SARCOIDOSIS-ASSOCIATED PULMONARY HYPERTENSION” (ALTAVANT SCIENCES GmbH, priority 2018, published 2022).)
